These results are taken from ChEMBL document CHEMBL1123385, “Stereoselectivity of a potent calcium antagonist, 1-benzyl-3-pyrrolidinyl methyl 2,6-dimethyl-4-(m-nitrophenyl)-1,4-dihydropyridine-3,5-dicarboxylate” (J Med Chem, 1986).

In general, Hill coefficient refers to a measure of the steepness of the concentration-response curve.

The target in data set [1] is Voltage-gated L-type calcium channel (Rattus norvegicus, UniProt P22002+Q02485+P27732). As to the kind of experiment: Inhibition of [3H]nitrendipine binding to L-type calcium channel from rat brain cortex homogenate.
The species named for another data set is Rattus norvegicus. As to the kind of experiment: Hill coefficient of the compound. The conditions noted are these: in vitro.
Another data set has as its system Canis familiaris. Kind of data set: The compound was tested for coronary vasodilating activity in anesthetized coronary perfused dogs. The format is functional, Canis lupus familiaris.

Take `CO/C(O)=C1\C(C)=NC(C)=C(C(=O)O[C@@H]2CCN(Cc3ccccc3)C2)[C@@H]1c1cccc([N+](=O)[O-])c1.Cl`: the Ki in data set [1] is given as 14.3 nM l-1. For the same molecule, the Hill coefficient in the data set filed under Rattus norvegicus is 1.143. In the data set with Canis familiaris, this molecule yielded an ED100 of 3.1 µg.
On the same counts, the results for `CO/C(O)=C1\C(C)=NC(C)=C(C(=O)O[C@H]2CCN(Cc3ccccc3)C2)[C@H]1c1cccc([N+](=O)[O-])c1.Cl` are 0.205 nM l-1, 1.203 and 0.57 µg.
Turning to `COC(=O)C1=C(C)NC(C)=C(C(=O)OCCN(C)Cc2ccccc2)[C@H]1c1cccc([N+](=O)[O-])c1`, the Ki in data set [1] came to 0.499 nM l-1. In the data set listed under Rattus norvegicus, the Hill coefficient stood at 1.286.
As for `COC(=O)C1=C(C)NC(C)=C(C(=O)OCCN(C)Cc2ccccc2)C1c1cccc([N+](=O)[O-])c1` (racemic) [NICARDIPINE], the Ki in data set [1] came to 0.84 nM l-1. Besides, in the data set listed under Rattus norvegicus, the Hill coefficient is 1.054.
As for `CO/C(O)=C1\C(C)=NC(C)=C(C(=O)O[C@H]2CCN(Cc3ccccc3)C2)[C@@H]1c1cccc([N+](=O)[O-])c1.Cl` (racemic), in data set [1], the Ki stood at 49.6 nM l-1. The same molecule displayed a Hill coefficient in the data set listed under Rattus norvegicus of 0.957. Besides, the ED100 in the data set on Canis familiaris was 9.1 µg.
In the same order, the values of `CO/C(O)=C1\C(C)=NC(C)=C(C(=O)O[C@@H]2CCN(Cc3ccccc3)C2)[C@H]1c1cccc([N+](=O)[O-])c1.Cl` are 3.09 nM l-1, 0.752 and 1.6 µg.
Take `COC(=O)C1=C(C)NC(C)=C(C(=O)OC)C1c1ccccc1[N+](=O)[O-]` [NIFEDIPINE]: in the data set filed under Rattus norvegicus, the Hill coefficient was 1.105.
`COC(=O)C1=C(C)NC(C)=C(C(=O)OCCN(C)Cc2ccccc2)[C@@H]1c1cccc([N+](=O)[O-])c1`: the Ki in data set [1] came to 7.11 nM l-1. Further, the Hill coefficient in the data set listed under Rattus norvegicus stood at 1.241.
